Where a SMILES comes first, the peptide text is derived from it. [ ]: non-standard residue; d: D form. The star is where a group is joined. ξ: configuration not given here. ξF = NC(Cc1ccccc1)C(=O)O; Cbz = O=C(OCc1ccccc1)*
What was measured:
[1] = tested on: HMC3 (human microglia) cell line; assay: pHrodo-myelin phagocytosis/cell viability high content imaging assay: viability (cell count, nuclear area, nuclear intensity); conditions: 48 hours treatment
In short: (§1)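 Immortalized microglia are treated with compound (10 μM, single concentration) for 48 h, the final 20 h alongside pHrodo-myelin. Data are the mean of duplicates, reported as % of untreated control.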

[2] = tested on: BV2 (mouse microglia) cell line; assay: as above; conditions: 48 hours treatment
In short: as §1

[3] = tested on: HMC3 (human microglia) cell line; assay: pHrodo-myelin phagocytosis/cell viability high content imaging assay: phagocytosis signal; assay type: cell-based
In short: (§2)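 Read by high content imaging: the phagocytosis signal plus viability, measured simultaneously, with three extracted measurements. Imaging was done roughly 22 hours after pHrodo-myelin was added.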

[4] = tested on: BV2 (mouse microglia) cell line; assay: as above; assay type: cell-based
In short: as §2

[5] = HMC3, compound 10 uM, pHrodo-myelin
[6] = BV2, compound 10 uM, pHrodo-myelin
[7] = HMC3 cells, 10 uM compound, 48 hours treatment, pHrodo-myelin final 20 hours
[8] = BV2 cells, 10 uM compound, 48 hours treatment, pHrodo-myelin final 20 hours

SMILES | 1. Cell count (% control) ([1]; HMC3, compound 10 uM) | 2. Nuclear Area (% Control) ([1]; HMC3, compound 10 uM) | 3. Nuclear DNA Intensity (% control) ([1]; HMC3, compound 10 uM) | 1. Cell count (% control) ([2]; BV2, compound 10 uM) | 2. Nuclear Area (% Control) ([2]; BV2, compound 10 uM) | 3. Nuclear DNA Intensity (% control) ([2]; BV2, compound 10 uM) | 4. Phagocytosis (% control) [3, 5] [% control] | 4. Phagocytosis (% control) [4, 6] [% control] | 1. Cell count (% control) ([1]; HMC3 cells, 10 uM compound) | 2. Nuclear Area (% Control) ([1]; HMC3 cells, 10 uM compound) | 3. Nuclear DNA Intensity (% control) ([1]; HMC3 cells, 10 uM compound) | 1. Cell count (% control) ([2]; BV2 cells, 10 uM compound) | 2. Nuclear Area (% Control) ([2]; BV2 cells, 10 uM compound) | 3. Nuclear DNA Intensity (% control) ([2]; BV2 cells, 10 uM compound) | 4. Phagocytosis (% control) [3, 7] [% control] | 4. Phagocytosis (% control) [4, 8] [% control]
CCS(=O)(=O)N1CCN(c2ccc(Nc3ncc(C(N)=O)c(NC4CC4)n3)cc2)CC1 [UNC10245084A] | 54.5 | 136.2 | 128.1 | 6.9 | 115.7 | 50.0 | 110.4 | 2.3 |  |  |  |  |  |  |  | 
CC(C)(C)c1cnc(CSc2cnc(NC(=O)C3CCNCC3)s2)o1 [UNC10302585A] |  |  |  |  |  |  |  |  | 57.0 | 118.9 | 102.8 | 5.4 | 123.4 | 85.3 | 156.3 | 98.5
CCCC[C@@H](C=O)NC(=O)[C@H](CC(C)C)NC(=O)OCc1ccccc1 [UNC10302674A] |  |  |  |  |  |  |  |  | 146.0 | 103.5 | 93.8 | 102.6 | 106.4 | 106.3 | 69.0 | 195.1
CC(C)[C@H](NC(=O)OCc1ccccc1)C(=O)NC(C=O)Cc1ccccc1 (stereo partly drawn) [UNC10302675A] (Cbz-Val-[ξF]-aldehyde) |  |  |  |  |  |  |  |  | 109.7 | 102.5 | 106.2 | 117.2 | 102.4 | 114.8 | 106.9 | 144.5
O=C(NC1CC1)C(=O)C(Cc1ccccc1)NC(=O)[C@H]1CCC(=O)N1Cc1ccccc1 (some centres unmarked) [UNC10302676A] |  |  |  |  |  |  |  |  | 123.8 | 98.7 | 104.1 | 127.5 | 105.0 | 102.8 | 95.9 | 108.4
COCCOCCOC(=O)N[C@@H](CC(C)C)C(=O)N[C@@H](Cc1ccccc1)C(=O)C(=O)NC1CC1 [UNC10302677A] |  |  |  |  |  |  |  |  | 142.6 | 102.2 | 91.6 | 132.7 | 105.3 | 103.4 | 70.4 | 132.9
c1cn2cc(-c3ccc4cn[nH]c4c3)nc(Nc3ccc(N4CCOCC4)cc3)c2n1 [UNC10302678A] |  |  |  |  |  |  |  |  | 74.7 | 98.9 | 212.8 | 22.1 | 102.9 | 164.6 | 43.6 | 0.6
CNc1nc(C)nc(N[C@H]2CCC[C@@H](C(=O)NCc3ccc(C#N)cc3C(F)(F)F)C2)n1 [UNC10302679A] |  |  |  |  |  |  |  |  | 141.0 | 100.7 | 92.7 | 107.8 | 106.3 | 102.1 | 69.3 | 135.7
O=c1oc2ccccc2cc1-c1cn2cc(Cc3ccc(F)cc3)sc2n1 [UNC10302680A] |  |  |  |  |  |  |  |  | 107.8 | 96.3 | 103.3 | 59.2 | 99.6 | 132.0 | 72.6 | 114.2
CCC(=O)N1CCC(NC(=O)Nc2ccc(OC(F)(F)F)cc2)CC1 [UNC10302681A] |  |  |  |  |  |  |  |  | 147.2 | 103.6 | 94.9 | 105.6 | 99.0 | 108.5 | 96.8 | 102.7
Cl.NC(=O)c1cnc(N[C@@H]2CCCC[C@@H]2N)nc1Nc1cccc(-n2nccn2)c1 [UNC10302682A] |  |  |  |  |  |  |  |  | 54.1 | 63.7 | 181.4 | 28.1 | 80.4 | 42.1 | 0.13 | 0.00121
CC(=O)N1CCC(NC(=O)NC23CC4CC(CC(C4)C2)C3)CC1 [UNC10302683A] |  |  |  |  |  |  |  |  | 168.7 | 103.9 | 92.0 | 126.3 | 103.6 | 107.4 | 72.2 | 155.4
C=CC[N+]1(C2CC3C4CCC5CC(O)C(N6CCOCC6)CC5(C)C4CCC3(C)C2OC(C)=O)CCCC1.[Br-] (centres unmarked) [UNC10302696A] | 145.5 | 103.7 | 86.9 | 144.5 | 102.9 | 102.4 | 62.6 | 148.6 |  |  |  |  |  |  |  | 
CN(C)CC#Cc1ccc(OCCCc2sc(N3CCc4cccc(C(=O)Nc5nc6ccccc6s5)c4C3)nc2C(=O)O)c(F)c1 [UNC10302697A] | 92.7 | 89.5 | 121.7 | 84.3 | 106.7 | 111.2 | 54.1 | 206.2 |  |  |  |  |  |  |  | 
Nc1ncnc2c1nc(Br)n2[C@@H]1O[C@@H]2COP(=O)([O-])O[C@H]2[C@H]1O.[Na+] [UNC10302698A] | 137.9 | 97.3 | 96.1 | 97.0 | 105.8 | 98.8 | 80.6 | 164.5 |  |  |  |  |  |  |  | 
Oc1cc(CNC(=S)/C=C/c2cc(O)c(O)c(Br)c2)cc(O)c1O [UNC10302699A] | 53.7 | 113.5 | 119.4 | 17.7 | 116.2 | 76.1 | 92.5 | 235.2 |  |  |  |  |  |  |  | 
CSc1ccc2c(c1)c(CCN)c(C)n2Cc1ccc(Cl)cc1Cl.Cl [UNC10302700A] | 10.1 | 49.3 | 146.5 | 22.6 | 113.6 | 33.9 | 0.0 | 0.00395 |  |  |  |  |  |  |  | 
COc1ccc(CC[C@@H](OC(=O)[C@@H]2CCCCN2C(=O)[C@H](c2cc(OC)c(OC)c(OC)c2)C2CCCCC2)c2cccc(OCC(=O)O)c2)cc1OC [UNC10302701A] | 116.9 | 101.8 | 97.5 | 117.8 | 104.1 | 103.5 | 71.9 | 156.6 |  |  |  |  |  |  |  | 
CN(C)CCCOc1c(Br)cc(/C=C/C(=O)NCCCOc2c(Br)cc(CCN(C)C)cc2Br)cc1Br [UNC10302702A] | 39.0 | 54.1 | 166.0 | 26.8 | 80.6 | 57.8 | 0.00724 | 0.0 |  |  |  |  |  |  |  | 

Reference: article PMC9019904, “AD Informer Set: Chemical tools to facilitate Alzheimer's disease drug discovery” (Alzheimer's & Dementia : Translational Research & Clinical …, 2022)
